Measured values: US20100267561A1, “HERBICIDAL PYRIDAZINONE DERIVATIVES” (priority 2007, published 2010)
Read-outs that look alike come from different tables or passages of the source.

Legend:
Type in all cases: in vivo
[1] = system: corn (Zea mays); assay: Test A pre-/postemergence plant response; settings: Zea mays, 240 h; for Corn plant response rating (crop injury, 0 = no effect, 100 = complete kill) at 31 g/ha: 31 g ai/ha; for Corn plant response rating (crop injury, 0 = no effect, 100 = complete kill) at 125 g/ha: 125 g ai/ha
Summary of the method: (§1)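 Ratings are visual, 0–100, where 100 means complete control and 0 no effect, taken roughly 10 days after treatment by comparison with untreated controls. Formulation: non-phytotoxic solvent mixture with surfactant.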

[2] = system: large crabgrass (Digitaria sanguinalis); assay: Test A pre-/postemergence plant response; settings: Digitaria sanguinalis, 240 h, read-out: Plant response rating, Crabgrass, Large; for pest or weed control at 31 g/ha: 31 g ai/ha; for pest or weed control at 125 g/ha: 125 g ai/ha
Summary of the method: as §1

[3] = system: pigweed (Amaranthus retroflexus); assay: Test A pre-/postemergence plant response; settings: Amaranthus retroflexus, 240 h, read-out: Plant response rating, Pigweed; for pest or weed control at 31 g/ha: 31 g ai/ha; for pest or weed control at 125 g/ha: 125 g ai/ha
Summary of the method: as §1

[4] = system: barnyardgrass (Echinochloa crus-galli); assay: Test A pre-/postemergence plant response; settings: Echinochloa crus-galli, 240 h, read-out: Plant response rating, Barnyardgrass; for pest or weed control at 31 g/ha: 31 g ai/ha; for pest or weed control at 125 g/ha: 125 g ai/ha
Summary of the method: as §1

[5] = system: giant foxtail (Setaria faberi); assay: Test A pre-/postemergence plant response; settings: Setaria faberi, 240 h, read-out: Plant response rating, Foxtail, Giant; for pest or weed control at 31 g/ha: 31 g ai/ha; for pest or weed control at 125 g/ha: 125 g ai/ha
Summary of the method: as §1

[6] = system: windgrass (Apera spica-venti); assay: Test B postemergence plant response; settings: for Windgrass plant response rating: postemergence, 0-100 scale; for Plant response rating, Windgrass: Postemergence
Protocol: (§2) At the same time, plants selected from these crop and weed species and also winter barley (Hordeum vulgare), canarygrass (Phalaris minor), chickweed (Stellaria media) and windgrass (Apera spica-venti) were treated with postemergence applications of some of the test chemicals formulated in the same manner. Plants ranged in height from 2 to 18 cm (1- to 4-leaf stage) for postemergence treatments.
(§3) Plant species in the flooded paddy test consisted of rice (Oryza sativa), umbrella sedge (Cyperus difformis), ducksalad (Heteranthera limosa) and barnyardgrass (Echinochloa crus-galli) grown to the 2-leaf stage for testing. At time of treatment, test pots were flooded to 3 cm above the soil surface, treated by application of test compounds directly to the paddy water, and then maintained at that water depth for the duration of the test. Treated plants and controls were maintained in a greenhouse for 13 to 15 days, after which time all species were compared to controls and visually evaluated. Plant response ratings, summarized in Table B, are based on a scale of 0 to 100 where 0 is no effect and 100 is complete control. A dash (-) response means no test result.

[7] = system: winter barley (Hordeum vulgare); assay: Test B postemergence plant response; settings: for Plant response rating, Barley: Postemergence, scale 0 to 100, 0 no effect, 100 complete control
Protocol: as §2, §3

[8] = system: canarygrass (Phalaris minor); assay: Test B postemergence plant response; settings: for Plant response rating, Canarygrass: Postemergence
Protocol: as §2, §3

[9] = system: chickweed (Stellaria media); assay: Test B postemergence plant response; settings: for Plant response rating, Chickweed: Postemergence
Protocol: as §2, §3

[10] = post-emergence, Postemergence, 0 to 100 scale (0 no effect, 100 complete control)
[11] = post-emergence, Postemergence, 0 to 100 scale, 0 no effect, 100 complete control
[12] = pre-emergence, Preemergence, 0 to 100 scale, 0 is no effect, 100 is complete control
[13] = pre-emergence, Preemergence, 0 to 100 scale (0 no effect, 100 complete control)
[14] = 62 g ai/ha, scale 0 to 100, 0 no effect, 100 complete control
[15] = 8 g ai/ha, postemergence, 0-100 scale

Compound: Cc1cc(-c2ccc(Br)cc2)nn1-c1c(O)cn[nH]c1=O [Compound 78, 4-[3-(4-bromophenyl)-5-methyl-1H-pyrazol-1-yl]-5-hydroxy-3(2H)-pyridazinone]
- Corn plant response rating (crop injury, 0 = no effect, 100 = complete kill) at 31 g/ha [1, 10]: 60%
- Corn plant response rating (crop injury, 0 = no effect, 100 = complete kill) at 125 g/ha [1, 11]: 100%
- Corn plant response rating (crop injury, 0 = no effect, 100 = complete kill) at 31 g/ha [1, 12]: 0%
- Corn plant response rating (crop injury, 0 = no effect, 100 = complete kill) at 125 g/ha [1, 13]: 90%
- pest or weed control at 31 g/ha [2, 10]: 80%
- pest or weed control at 125 g/ha [2, 11]: 100%
- pest or weed control at 31 g/ha [2, 12]: 10%
- pest or weed control at 125 g/ha [2, 13]: 100%
- pest or weed control at 31 g/ha [3, 10]: 0%
- pest or weed control at 125 g/ha [3, 11]: 0%
- pest or weed control at 31 g/ha [3, 12]: 0%
- pest or weed control at 125 g/ha [3, 13]: 0%
- pest or weed control at 31 g/ha [4, 10]: 90%
- pest or weed control at 125 g/ha [4, 11]: 100%
- pest or weed control at 31 g/ha [4, 12]: 0%
- pest or weed control at 125 g/ha [4, 13]: 100%
- pest or weed control at 31 g/ha [5, 10]: 80%
- pest or weed control at 125 g/ha [5, 11]: 100%
- pest or weed control at 31 g/ha [5, 12]: 20%
- pest or weed control at 125 g/ha [5, 13]: 100%
- Windgrass plant response rating ([6]; 8 g ai/ha): 40
- Windgrass plant response rating ([6]; 16 g ai/ha): 50
- Plant response rating, Windgrass ([6]; 31 g ai/ha, scale 0 to 100): 60
- Plant response rating, Windgrass [6, 14]: 80
- Barley plant response rating [7, 15]: 45
- Plant response rating, Barley ([7]; 16 g ai/ha): 90
- Plant response rating, Barley ([7]; 31 g ai/ha): 95
- Plant response rating, Barley ([7]; 62 g ai/ha): 95
- Canarygrass plant response rating [8, 15]: 80
- Plant response rating, Canarygrass ([8]; 16 g ai/ha, scale 0 to 100): 90
- Plant response rating, Canarygrass ([8]; 31 g ai/ha, scale 0 to 100): 100
- Plant response rating, Canarygrass [8, 14]: 100
- Chickweed plant response rating [9, 15]: 0
- Plant response rating, Chickweed ([9]; 16 g ai/ha, scale 0 to 100): 0
- Plant response rating, Chickweed ([9]; 31 g ai/ha, scale 0 to 100): 0
- Plant response rating, Chickweed [9, 14]: 0
